Data on eleven compounds can be found in US20170233637A1, “METHODS FOR INHIBITING METAL CORROSION” (OHIO UNIVERSITY, priority 2014, published 2017).

The conditions of series [1]: cited from earlier work; for Solubility: at 77° C.; for Water solubility: temperature not given.
Series [2] in a line: Efficacy test of VCI candidates for top of the line corrosion (weight loss, ASTM G1; surface analysis). As to conditions: for TLC rate / TLC rate (weight loss): uninhibited 1.06 mm/y; for surface of the X65 TLC specimen: 100 and 400 ppmv in the bulk, after 2 days; for TLC rate (weight loss): 2 days. How it is done:
The temperatures of the bottom solution and gas phases were controlled by a heater, while temperature of the specimen at the top was controlled by cooling water. Through coil 20, a condenser 22 was used to prevent water and VCI vapor loss.
In the VCI efficacy test, corrosion rate of the specimen at the top (TLC rate) was measured by weight loss following the ASTM G1 standard. Sample surface was characterized by Scanning Electron Microscopy (SEM)/Energy Dispersive X-ray Spectroscopy (EDS).
1-hexanethiol, 1-decanethiol and 1-dodecanethiol were chosen based on the results in the VCI screening test, data from which will be shown below. In addition, the effect of acetic acid and MEG on the inhibition performance of the best VCI candidate was also taken into account.
For the efficacy tests of VCI candidates for TLC, 1 wt % NaCl was also prepared and purged with CO2 for 2 hours. In order to have a gas temperature of 65° C., the bottom solution was heated to 77° C. After that the selected concentration of the VCI candidates (Table 3) was added into the bulk solution. A weight loss specimen 24, after being ground (with up to 600 grit abrasive paper), was flush-mounted at the top of the experimental setup, controlling its temperature at 32° C. using cooling water. The weight loss sample and ER probe were added 0.1 hour after addition of the VCI candidate. The weight loss samples were withdrawn after 48 hours for surface analysis and weight loss measurement.
FIG. 15 indicates the conditions for the TLC tests. The temperatures at the bottom, in the vapor phase, and at the top were 77° C., 65° C., and 32° C. respectively. The experiment was performed in the CO2 environment (total pressure=1 atm).

For series [3] the following is noted: cited from earlier work; for Pvapor (vapor pressure): at 25° C.; for Calculated vapor pressure: at 200° C., Yaws and Yang 1989.
Series [4] in a line: VCI screening in bulk solution (BLC rate by linear polarization resistance, OCP, solution pH). Conditions: for inhibition properties in the tested water phase (VCI screening in bulk solution): 400 ppmv, 1 wt % NaCl. How it is done: Other measurements of the effectiveness of the VCI composition to inhibit corrosion may be derived from Open Circuit Potential (OCP) and Linear Polarization Resistance (Rp) experiments. In the volatile thiol screening test, a potentiostat was used to measure the Rp and the OCP of the ferrous metal sample. Corrosion rate in the water phase (BLC rate) is proportional to the corrosion current density (icorr), which was then calculated by using a B constant value of 0.026 V/decade (icorr=B/Rp/S in which S is surface area of the sample).
A three electrode system was used in which an X65 rotating cylinder electrode (1000 RPM) was the working electrode 12, a Pt wire was used as counter electrode 14, and Ag/AgCl as the reference electrode 16. A pH probe 18 was used to measure the pH of the solution before and after adding the VCI candidates. The experiments were performed at 25° C. and 1 bar total pressure (pCO2=0.96 bar).
In the VCI screening test, a potentiostat was used to measure the polarization resistance (Rp) of the X65 sample. Corrosion rate in the water phase (BLC rate) is proportional to the corrosion current density (icorr) which was then calculated by using a B constant value of 0.026 V/decade (icorr=B/Rp/S in which S is surface area of the sample).
A baseline test was performed in the absence of the VCI candidate compound. […] Dibutyl sulfide was used to compare the sulfide functional group versus the thiol functional group.
For the VCI screening tests, a 1 wt % NaCl solution was prepared and purged with CO2 for 2 hours at 25° C. before injecting the VCI candidate. […] After that the Open Circuit Potential (OCP) and Linear Polarization Resistance (LPR) were measured every 10 minutes during an exposure time of 3-4 hours. The pH of the solution was measured before and after adding the VCI candidate. Electrolyte resistance (ER) was measured by Electrochemical Impedance Spectroscopy (EIS).

A short description of series [5]: Solubility in water of VCI candidates. Conditions: at 25° C.; converted to ppm by volume using density value.
The conditions of series [6]: carbon dioxide saturated environment; cited from earlier work.
[7] abbreviates: at 25° C., data from www.lookchem.com.
The mark [8] stands for this setting: 400 ppmv VCI added before electrode insertion, CO2 saturated 1 wt % NaCl, 25° C., baseline 2.3 mm/y.

In brackets after ≈: the same amount, converted by molar mass. Several values for one entry are separate records, joined by “and”; a condition that tells them apart may be missing. Equal entries are not always repeated. Where two headings read alike, the source gives them in different places.

Take `CCCCCCCCCCS` [1-decanethiol]: the Solubility limit in series [1] (setting [7]) is given as 2.14 mg/L (≈ 12.3 µM); in series [1] (at 32° C.), 3.63 ppmv. Besides, the Solubility in series [1] is on record as 24.8 ppmV. For the same compound, the Water solubility in series [1] is listed as around 2.14 mg/L. Further, the results for the TLC rate in series [2] (1 ppmv at the bottom) and in series [2] (10 ppmv at the bottom) were 0.21 mm/y and 0.12 mm/y, respectively. In addition, the “surface of the X65 TLC specimen” value in series [2] is given as “fully protected”. Further, the “protection of the X65 specimen in the presence of acetic acid” value in series [2] (100 ppmv VCI with 500 ppmv acetic acid) was “effective in fully protecting”. Besides, the “TLC rate (weight loss)” value in series [2] (400 ppmV at the bottom) amounted to 0.02 mm/y. For the same compound, the “weight loss for the calculation of corrosion rate” value in series [2] (above the solubility limit (100 ppmv and 400 ppmv)) is “no measurable weight loss”. In addition, the “average vapor phase corrosion rate” value in series [2] (with or without 50 wt. % MEG, 400 ppmV per test matrix) is listed as “around 0.04 mm/y”. Besides, the “Pvapor (vapor pressure)” value in series [3] is reported as 0.06 mmHg. Further, the BLC rate came out at 0.01 mm/y in series [4] (setting [8]) and 0.05 mm/y in series [4] (400 ppmv injected after electrode insertion (X65 pre-corroded almost one hour), decreased from 2.4 mm/y). Also, the “inhibition properties in the tested water phase (VCI screening in bulk solution)” value (from here on “inhibition properties”) in series [4] is “had inhibition properties”.
`CCCCCCCCCCCCS` [1-dodecanethiol] showed a Solubility in series [5] of 0.22 ppmV. Besides, in series [1] (setting [7]), the Solubility limit is 0.18 mg/L (≈ 0.889 µM). In series [1], the Solubility was 3 ppmV and the Water solubility was around 0.225 mg/L. Further, the “TLC rate (weight loss)” value in series [2] (400 ppmV at the bottom) came to 0.02 mm/y. Besides, the “Pvapor (vapor pressure)” value in series [3] is recorded as 0.007 mmHg. Moreover, in series [4], the “inhibition properties” value is given as “had inhibition properties”.
For `CCCCCCS` [1-hexanethiol], the Solubility in series [5] is 212.35 ppmV and 212.4 ppmV; in series [1] it was 1013.0 ppmV. Further, in series [1] (setting [7]), the Solubility limit is listed as 177.1 mg/L (≈ 1500 µM). In series [1], the Water solubility result is given as “about 177.1 mg/L”. The “surface of the X65 TLC specimen” value in series [2] was “partially protected”. In addition, the “TLC rate (weight loss)” value in series [2] (100 ppmV at the bottom) was 0.11 mm/y; in series [2] (400 ppmV at the bottom), 0.13 mm/y. In addition, in series [2] (100 ppmv and 400 ppmv in the bulk), the “TLC rate, times lower than the baseline test” value amounted to 10 times. In series [2] (400 ppmv in the bulk, profilometry after removing corrosion product, 2 day experiment), the localized corrosion rate was 1.46 mm/y. Also, the “depth of the deepest pit on the surface” value in series [2] (400 ppmv in the bulk, profilometry, 2 day experiment) is recorded as “about 8 micrometers”. For the same compound, the “Pvapor (vapor pressure)” value in series [3] is 4.5 mmHg. For the same compound, the BLC rate in series [4] (setting [8]) is given as 0.01 mm/y. Also, in series [4], the “inhibition properties” value is on record as “had inhibition properties”.
For the compound `O=C(O)CCCCCCCCCCS` [11-MUA, 11-mercaptoundecanoic acid], in series [1], the Solubility is reported as 89 ppmV and the Water solubility entry is recorded as “about 13.8 mg/L”. For the same compound, the “TLC rate (weight loss)” value in series [2] (100 ppmV at the bottom) turned out to be 0.02 mm/y. Besides, the “Pvapor (vapor pressure)” value in series [3] was 3.7 × 10^−5 mmHg.
Regarding `OCCCCCCCCCCCS` [11-Mercapto-1-undecanol], the Water solubility result in series [1] is reported as “about 10.3 mg/L”.
`CCCCCCCCCCCCCCCS` [C15]: the Calculated vapor pressure in series [3] was 26.5 mmHg.
Take `CCCCCCCCCCCCCCCCS` [C16]: in series [3], the Calculated vapor pressure is listed as 16.7 mmHg.
For the compound `CCCCCCCCCCCCCCCCCS` [C17], in series [3], the Calculated vapor pressure was 10.7 mmHg.
`CCCCCCCCCCCCCCCCCCS` [C18]: the Calculated vapor pressure in series [3] is 6.79 mmHg.
In the case of `CCCCSCCCC` [Dibutyl sulfide, reference compound], in series [1] (setting [7]), the Solubility limit was 39.4 mg/L (≈ 269 µM). In addition, the BLC rate result in series [4] (setting [8]) is on record as “did not significantly change”. For the same compound, in series [4], the “inhibition properties” value is listed as “did not”.
Consider `O=C(O)CS` [Thioglycolic acid], for which the “effectiveness at inhibiting corrosion” value in series [6] is reported as “only partially effective”.
